Laboratory results from US20260131007A1, “Mannose 6-Phosphate Receptor Binding Compounds for the Degradation of Extracellular Proteins” (Avilar Therapeutics, Inc., priority 2023, published 2026).
Bridge positions count the residues as written; N and C are the ends. Square brackets hold non-standard residues; d marks the D form.

target: T1, Insulin-like growth factor 2 receptor (IGF-1IR, cation-independent mannose-6-phosphate receptor, CI-MPR; hIGF-IIR) (Homo sapiens, UniProt P11717); test: HTRF-based ternary complex inhibition assay for relative affinity of IGF-IIR ligands; conditions: competition with MTAC probe for His-tagged hIGF-IIR; biotinylated IgG1; apparent binding affinity; read-out: TCF INH (HTRF) IC50
T1 construct: purchased R&D Systems 6418-GR
Experimental: The apparent binding affinity of Insulin-like growth factor 2 receptor (IGF-1IR, also called the cation- independent mannose-6-phosphate receptor (CI-MPR)) ligands was determined indirectly by competing with a probe molecule for binding to IGF-1IR. The probe is a Mannose 6-Phosphate Ligand (“Ligand”) and binds to hIGF-IIR and IgG1 to form a hIGF-IIR: Ligand: IgG1 ternary complex. The ternary complex was detected by an HTRF readout. The ternary complex is disrupted in the presence of IGF-1IR ligand, resulting in decreased HTRF signal. IGF-1IR ligands of 3-fold dilution series were prepared from 10 mM DMSO stock on a 384-well LDV microplate using Echo Acoustic Liquid Handler (Beckman Coulter Life Sciences) followed by transfer of 600 nL of the solutions to an OptiPlate 384-well microplate (PerkinElmer, 6007290). Manose-6-phosphate (M6P; J&K, 530168) and glucose-6-phosphate (G6P; Sigma, V900924) were prepared from 100 mM stock in the same manner and were used as positive and negative controls, respectively. The wells used as 0% and 100% inhibition controls were prepared by adding 600 nL DMSO. 20 nL of 50 μM MTAC probe was transferred to all wells except the wells used as 100% Inhibition control. 9.4 μL working solution containing 65.1 nM of Biotinylated-IgG1 (Viva 20211108) and 65.1 nM of His-tagged hIGF-IIR (R&D Systems, 6418-GR) in assay buffer 50 mM Tris, pH 7.5, 150 mM NaCl, 50 mM CaCl2, 0.01% Tween-20 was transferred to all wells. The plate was incubated at room temperature for 60 min with gentle shaking to allow molecular interaction to reach equilibration. Following this, 10 μL of HTRF detection solution containing 15 nM Streptavidin-d2 (PerkinElmer, 610SADLA) and 0.7 nM MAb Anti 6HIS—Tb cryptate (PerkinElmer, 61HISTLA) in PPI Terbium detection buffer (PerkinElmer, 61DB10RDF) was added. The assay plate was incubated at room temperature with gentle shaking for 60 min to allow HTRF signal to develop. The plate was gently spun on a centrifuge then placed on a EnVision plate reader (Perkin Elmer, EnVision 2104) to read fluorescence ratio of 665 nm/615 nm. Percent inhibitions were calculated with this equation: % I=100* [1−(X−100% I/(0% I−100% I)] where X is the […] in the presence of IGF-1IR ligand. The apparent binding affinity (presented as IC50) was calculated by fitting the % inhibition data with a non-linear 4-parameter inhibition equation using GraphPad Prism (GraphPad Software, LLC; version 9.4.1).

Molecule	IC50 [nM]
N#CNC(=O)CC[C@H]1O[C@H](Oc2ccccc2)[C@@H](O)[C@@H](O)[C@@H]1O [Compound A3, N-cyano-3-((2R,3S,4S,5S,6R)-3,4,5-trihydroxy-6-phenoxytetrahydro-2H-pyran-2-yl)propanamide]	10000 to 100000
C#CCCOC1O[C@H](CCS(=O)(=O)Nc2ncccn2)[C@@H](O)[C@H](O)[C@@H]1O (stereo partly drawn) [Compound A14, 2-((2R,3S,4S,5S)-6-(but-3-yn-1-yloxy)-3,4,5-trihydroxytetrahydro-2H-pyran-2-yl)-N-(pyrimidin-2-yl)ethane-1-sulfonamide]	100000 to 300000
O=P(O)(O)CC[C@H]1O[C@H](c2cn(-c3ccccc3)nn2)[C@@H](O)[C@@H](O)[C@@H]1O [Compound A84, (2-((2R,3S,4S,5S,6R)-3,4,5-trihydroxy-6-(1-phenyl-1H-1,2,3-triazol-4-yl)tetrahydro-2H-pyran-2-yl)ethyl)phosphonic acid]	< 10000

target: Biotinylated-IgG1 (Viva 20211108); test: HTRF ternary complex formation: compound titrated into 60 nM biotinylated IgG1 + 60 nM His-tagged hIGF-IIR (R&D 6418-GR); grade read by the legend '<50 nM = ***'; conditions: not given

Molecule	EC50 [nM]
cyclo(ELVWCT[dP]PDCAWHLG) (disulfide 5-10; not fully specified (residue 8); also: trivalent linker structure not given here) [Compound 10]	< 50
cyclo(ELVWCT[dP]PDCAWHLG) (disulfide 5-10; not fully specified (residue 8); also: trivalent linker structure not given here) [Compound 1]	< 50
cyclo(ELVWCT[dP]PDCAWHLG) (disulfide 5-10; not fully specified (residue 8); also: one triazole-linked A77 group on the PEG8 linker) [Compound 11]	< 50
cyclo(ELVWCT[dP]PDCAWHLG) (disulfide 5-10; not fully specified (residue 8); also: one triazole-linked (2-(6-(but-3-yn-1-yloxy)-3,4,5-trihydroxytetrahydro-2H-pyran-2-yl)ethyl)phosphonic acid group on the PEG8 linker) [Compound 6]	< 50
cyclo(ELVWCT[dP]PDCAWHLG) (disulfide 5-10; not fully specified (residue 8); also: branched PEG linker structure not given here) [Compound 9]	< 50

target: T2, hIGF-IIR and IgG1 (ternary complex) (Homo sapiens, UniProt P01857+P11717); test: HTRF-based ternary complex formation assay for hIGF-IIR targeting Extracellular Protein Degraders; assay type: binding; conditions: not given
T2 construct: purchased R&D Systems 6418-GR
Description: The ternary complex formation assay is designed to identify and determine the potency of Extracellular Protein Degrader molecules which can induce the formation of ternary complex between the Extracellular Protein Degrader hIGF-IIR. Titrating Extracellular Protein Degrader to fixed amount of hIGF-IIR results in a bell-shaped curve (except molecules whose binary complex affinity between Extracellular Protein Degrader and hIGF-IIR). The peak mean represents Extracellular Protein Degrader concentration at which maximum ternary complex is formed. Too much or too little Extracellular Protein Degrader leads to decreased ternary complex formation due to formation of binary complex (Hook effect). Dose response of Extracellular Protein Degrader compounds (16-point 3-fold dilution series, 100X) were prepared by Echo Acoustic Liquid Handler (Beckman Coulter Life Sciences) using 384-well LDV microplate. Then 200 nL of the solutions were transferred to an OptiPlate 384-well microplate (PerkinElmer, 6007290). To the assay plate, 10 μL working solution containing 60 nM of Biotinylated-IgG1 (Viva 20211108) and 60 nM of His-tagged hIGF-IIR (R&D Systems, 6418-GR) in assay buffer 50 mM Tris, pH 7.5, 150 mM NaCl, 50 mM CaCl2, 0.01% Tween-20 were added. The plate was incubated for 60 min at room temperature with gentle shaking to allow molecular interaction to reach equilibration. Following this, 10 μL of HTRF detection solution containing 15 nM Streptavidin-d2 (PerkinElmer, 610SADLA) and 0.7 nM MAb Anti 6HIS—Tb cryptate (PerkinElmer, 61HISTLA) in PPI Terbium detection buffer (PerkinElmer, 61DB10RDF) were added. The assay plate was incubated at room temperature with gentle shaking for 60 min to allow HTRF signal to develop. The plate was gently spun on a centrifuge then placed on an EnVision plate reader (Perkin Elmer, EnVision 2104) to read fluorescence ratio of 665 nm/615 nm. Data were analyzed by fitting with Bell-shaped non-linear regression model using GraphPad Prism (GraphPad Software, LLC; version 9.4.1). Mean fluorescence intensity is graphed versus compound concentration and the EC50 for TCF is calculated from the inflection point of the curve (GraphPad).

Molecule	EC50 [nM]
COc1ccc(OC2O[C@H](CCP(=O)(O)Cc3cccc(OCc4cn(CCOCCNC(=O)CCOCC(COCCC(=O)NCCOCCn5cc(COc6cccc(CP(=O)(O)CC[C@@H]7OC(Oc8ccc(OC)cc8)[C@H](O)[C@H](O)[C@H]7O)c6)nn5)(COCCC(=O)NCCOCCn5cc(COc6cccc(CP(=O)(O)CC[C@@H]7OC(Oc8ccc(OC)cc8)[C@H](O)[C@H](O)[C@H]7O)c6)nn5)NC(=O)COCCOCCOCC(=O)N[C@H]5C[C@H]6C(=O)N[C@@H](CC(=O)O)C(=O)N[C@H]7CSSC[C@H](NC(=O)[C@H](Cc8c[nH]c9ccccc89)NC(=O)[C@H](C(C)C)NC(=O)[C@H](CC(C)C)NC(=O)[C@H](CCC(=O)O)NC(=O)CNC(=O)[C@H](CC(C)C)NC(=O)[C@H](Cc8cnc[nH]8)NC(=O)[C@H](Cc8c[nH]c9ccccc89)NC(=O)[C@H](C)NC7=O)C(=O)N[C@@H]([C@@H](C)O)C(=O)N7CCC[C@@H]7C(=O)N6C5)nn4)c3)[C@@H](O)[C@H](O)[C@@H]2O)cc1 (stereo partly drawn) [Compound 1]	< 50
CC(C)C[C@@H]1NC(=O)[C@H](Cc2cnc[nH]2)NC(=O)[C@H](Cc2c[nH]c3ccccc23)NC(=O)[C@H](C)NC(=O)[C@@H]2CSSC[C@H](NC(=O)[C@H](Cc3c[nH]c4ccccc34)CC(=O)[C@H](C(C)C)NC(=O)[C@H](CC(C)C)NC(=O)[C@H](CCC(=O)O)NC(=O)CNC1=O)C(=O)N[C@@H]([C@@H](C)O)C(=O)N1CCC[C@@H]1C(=O)N1C[C@@H](NC(=O)CCOCCOCCOCCN(CCOCCOCCOCCn3cc(CCO[C@H]4O[C@H](CCP(=O)(O)O)[C@@H](O)[C@H](O)[C@@H]4O)nn3)CCOCCOCCOCCn3cc(CCO[C@H]4O[C@H](CCP(=O)(O)O)[C@@H](O)[C@H](O)[C@@H]4O)nn3)C[C@H]1C(=O)N[C@@H](CC(=O)O)C(=O)N2 [Compound 9]	< 50

same assay, conditions: biotinylated IgG1 and His-tagged hIGF-IIR, 60 nM each; read-out: TCF (HTRF) EC50

Molecule	EC50 [nM]
COc1ccc(OC2O[C@H](CCP(=O)(O)Cc3cn(CCOCCOCCOCCOCCOCCOCCOCCOCCC(=O)N[C@H]4C[C@H]5C(=O)N[C@@H](CC(=O)O)C(=O)N[C@H]6CSSC[C@H](NC(=O)[C@H](Cc7c[nH]c8ccccc78)NC(=O)[C@@H](C(C)C)NC(=O)[C@@H](CC(C)C)NC(=O)[C@H](CCC(=O)O)NC(=O)CNC(=O)[C@@H](CC(C)C)NC(=O)[C@H](Cc7cnc[nH]7)NC(=O)[C@H](Cc7c[nH]c8ccccc78)NC(=O)[C@H](C)NC6=O)C(=O)N[C@H]([C@@H](C)O)C(=O)N6CCC[C@@H]6C(=O)N5C4)nn3)[C@@H](O)[C@H](O)[C@@H]2O)cc1 (stereo partly drawn) [Compound 11]	< 50
CC(C)C[C@@H]1NC(=O)[C@H](Cc2c[nH]cn2)NC(=O)[C@H](Cc2c[nH]c3ccccc23)NC(=O)[C@H](C)NC(=O)[C@@H]2CSSC[C@H](NC(=O)[C@H](Cc3c[nH]c4ccccc34)NC(=O)[C@H](C(C)C)NC(=O)[C@H](CC(C)C)NC(=O)[C@H](CCC(=O)O)NC(=O)CNC1=O)C(=O)N[C@@H]([C@@H](C)O)C(=O)N1CCC[C@@H]1C(=O)N1C[C@@H](NC(=O)CCOCCOCCOCCOCCOCCOCCOCCOCCn3cc(CCO[C@H]4O[C@H](CCP(=O)(O)O)[C@@H](O)[C@H](O)[C@@H]4O)nn3)C[C@H]1C(=O)N[C@@H](CC(=O)O)C(=O)N2 [Compound 6]	< 50
